This is an account of results in the OligoGym collection.

Oligonucleotides are written 5' to 3', each unit as a sugar letter and its base; * is a phosphorothioate linkage, no mark a phosphodiester; rarer units and linkages stand in square brackets, end groups in braces. Plain capitals give the bases only. d = 2'-deoxy (DNA); r = 2'-OH (RNA)
Note: test concentration or dose not given here.

The first data set has as its target NOG. The data set is described as follows: reporter assay of Huesken 2005. The note with it: siRNA.
As for “sense rGrCrGrArGrArUrCrArArArGrGrGrCrUrArGrAdTdT / antisense rUrCrUrArGrCrCrCrUrUrUrGrArUrCrUrCrGrCdTdC”, the normalised inhibition (eCFP-eYFP dual reporter) stood at 96.7%.

Regarding “sense rGrCrCrUrArArGrCrArArGrArArGrCrUrGrCrGdTdT / antisense rCrGrCrArGrCrUrUrCrUrUrGrCrUrUrArGrGrCdGdC”, the normalised inhibition (eCFP-eYFP dual reporter) turned out to be 85.7%. The same measure, in the same setting: under “sense rUrCrCrGrCrCrCrGrGrCrArCrCrCrArGrCrGrAdTdT / antisense rUrCrGrCrUrGrGrGrUrGrCrCrGrGrGrCrGrGrAdTdG” stands 72%. Turning to “sense rArCrUrArUrCrUrCrCrArCrArUrCrCrGrCrCrCdTdT / antisense rGrGrGrCrGrGrArUrGrUrGrGrArGrArUrArGrUdGdC”, the normalised inhibition (eCFP-eYFP dual reporter) was 52.8%. On the same count and under the same terms, then “sense rGrArCrCrArGrCrUrGrCrUrGrCrGrGrCrArGrCdTdT / antisense rGrCrUrGrCrCrGrCrArGrCrArGrCrUrGrGrUrCdCdA”, with 55.2%; and “sense rGrArArGrCrUrGrCrGrGrArGrGrArArGrUrUrAdTdT / antisense rUrArArCrUrUrCrCrUrCrCrGrCrArGrCrUrUrCdTdT”, with 102%; and “sense rCrCrCrArGrCrGrArCrArArCrCrUrGrCrCrCrCdTdT / antisense rGrGrGrGrCrArGrGrUrUrGrUrCrGrCrUrGrGrGdTdG”, with 68.1%. The same measure, in the same setting: then “sense rGrCrArGrCrCrGrCrUrUrUrUrGrGrCrCrGrCrGdTdT / antisense rCrGrCrGrGrCrCrArArArArGrCrGrGrCrUrGrCdCdC”, with 46.4%; and “sense rArUrGrGrUrGrUrGrCrArArGrCrCrGrUrCrCrAdTdT / antisense rUrGrGrArCrGrGrCrUrUrGrCrArCrArCrCrArUdGdC”, with 86.2%. Consider “sense rArGrGrGrCrArUrGrGrUrGrUrGrCrArArGrCrCdTdT / antisense rGrGrCrUrUrGrCrArCrArCrCrArUrGrCrCrCrUdCdG”, for which the normalised inhibition (eCFP-eYFP dual reporter) came out at 75.7%.

As for “sense rUrCrArUrCrGrArArCrArCrCrCrArGrArCrCrCdTdT / antisense rGrGrGrUrCrUrGrGrGrUrGrUrUrCrGrArUrGrAdGdG”, the normalised inhibition (eCFP-eYFP dual reporter) was found to be 67.8%. Same read-out and setting: then “sense rUrArCrGrCrGrUrGrGrArArCrGrArCrCrUrGrGdTdT / antisense rCrCrArGrGrUrCrGrUrUrCrCrArCrGrCrGrUrAdCdA”, with 51.8%. In the case of “sense rArUrUrCrUrGrCrCrCrCrGrUrGrCrUrGrUrArCdTdT / antisense rGrUrArCrArGrCrArCrGrGrGrGrCrArGrArArUdGdT”, the normalised inhibition (eCFP-eYFP dual reporter) came out at 51%. Same read-out and setting: then “sense rCrCrUrCrArCrGrGrUrGrCrUrGrCrGrGrUrGrGdTdT / antisense rCrCrArCrCrGrCrArGrCrArCrCrGrUrGrArGrGdTdG”, with 70.1%. Same read-out and setting: then “sense rCrArGrCrGrCrCrUrArArGrCrArArGrArArGrCdTdT / antisense rGrCrUrUrCrUrUrGrCrUrUrArGrGrCrGrCrUrGdCdT”, with 62.6%; and “sense rUrCrGrCrArGrArCrArUrUrCrUrGrCrCrCrCrGdTdT / antisense rCrGrGrGrGrCrArGrArArUrGrUrCrUrGrCrGrAdCdC”, with 47.6%; and “sense rCrCrUrGrGrUrGrGrArCrCrUrCrArUrCrGrArAdTdT / antisense rUrUrCrGrArUrGrArGrGrUrCrCrArCrCrArGrGdGdG”, with 81.7%.

“sense rGrArArGrCrArGrCrGrCrCrUrArArGrCrArArGdTdT / antisense rCrUrUrGrCrUrUrArGrGrCrGrCrUrGrCrUrUrCdTdT”: the normalised inhibition (eCFP-eYFP dual reporter) turned out to be 83%. Same read-out and setting: under “sense rGrCrCrGrUrCrCrArArGrUrCrCrGrUrGrCrArCdTdT / antisense rGrUrGrCrArCrGrGrArCrUrUrGrGrArCrGrGrCdTdT” stands 66.1%. The same measure, in the same setting: under “sense rGrArGrCrUrGrGrArCrCrArGrCrUrGrCrUrGrCdTdT / antisense rGrCrArGrCrArGrCrUrGrGrUrCrCrArGrCrUrCdCdG” stands 71.8%; under “sense rCrArGrCrUrGrCrUrUrCrArGrUrArArGrCrGrCdTdT / antisense rGrCrGrCrUrUrArCrUrGrArArGrCrArGrCrUrGdCdC”, 56.5%; under “sense rCrArGrArCrCrCrUrArUrCrUrUrUrGrArCrCrCdTdT / antisense rGrGrGrUrCrArArArGrArUrArGrGrGrUrCrUrGdGdG”, 88.8%.

For the substance “sense rGrGrCrArArGrArArGrCrArGrCrGrCrCrUrArAdTdT / antisense rUrUrArGrGrCrGrCrUrGrCrUrUrCrUrUrGrCrCdCdT”, the normalised inhibition (eCFP-eYFP dual reporter) stood at 91.3%.

With “sense rArGrArGrUrUrCrUrCrCrGrArGrGrGrCrUrUrGdTdT / antisense rCrArArGrCrCrCrUrCrGrGrArGrArArCrUrCrUdAdG”, the normalised inhibition (eCFP-eYFP dual reporter) stood at 55.1%. Same read-out and setting: then “sense rGrArCrCrUrGrGrGrCrArGrCrCrGrCrUrUrUrUdTdT / antisense rArArArArGrCrGrGrCrUrGrCrCrCrArGrGrUrCdGdT”, with 77.1%; and “sense rCrArArGrGrArArArArGrGrArUrCrUrGrArArCdTdT / antisense rGrUrUrCrArGrArUrCrCrUrUrUrUrCrCrUrUrGdGdG”, with 95.1%; and “sense rGrArCrCrCrArGrGrCrUrUrCrArUrGrGrCrCrAdTdT / antisense rUrGrGrCrCrArUrGrArArGrCrCrUrGrGrGrUrCdGdT”, with 82.6%. For “sense rUrUrGrGrCrCrCrArGrGrGrCrArArGrArArGrCdTdT / antisense rGrCrUrUrCrUrUrGrCrCrCrUrGrGrGrCrCrArAdGdC”, the normalised inhibition (eCFP-eYFP dual reporter) came to 41.1%. Same read-out and setting: then “sense rGrArArCrGrArCrCrUrGrGrGrCrArGrCrCrGrCdTdT / antisense rGrCrGrGrCrUrGrCrCrCrArGrGrUrCrGrUrUrCdCdA”, with 59.1%.

For “sense rCrCrUrArUrCrUrUrUrGrArCrCrCrCrArArGrGdTdT / antisense rCrCrUrUrGrGrGrGrUrCrArArArGrArUrArGrGdGdT”, the normalised inhibition (eCFP-eYFP dual reporter) was determined as 89.1%.

Consider “sense rCrCrArCrArUrCrCrGrCrCrCrGrGrCrArCrCrCdTdT / antisense rGrGrGrUrGrCrCrGrGrGrCrGrGrArUrGrUrGrGdAdG”, for which the normalised inhibition (eCFP-eYFP dual reporter) came to 51.4%.

Regarding “sense rUrCrUrGrCrCrCrCrGrUrGrCrUrGrUrArCrGrCdTdT / antisense rGrCrGrUrArCrArGrCrArCrGrGrGrGrCrArGrAdAdT”, the normalised inhibition (eCFP-eYFP dual reporter) was found to be 61%.

Turning to “sense rGrCrGrGrCrArGrCrGrGrCrCrGrUrCrGrGrGrGdTdT / antisense rCrCrCrCrGrArCrGrGrCrCrGrCrUrGrCrCrGrCdAdG”, the normalised inhibition (eCFP-eYFP dual reporter) worked out at 70.5%. Still for that read-out and setting: under “sense rGrGrCrArUrGrGrUrGrUrGrCrArArGrCrCrGrUdTdT / antisense rArCrGrGrCrUrUrGrCrArCrArCrCrArUrGrCrCdCdT” stands 79.1%; under “sense rGrCrUrGrCrGrGrUrGrGrCrGrCrUrGrUrCrArGdTdT / antisense rCrUrGrArCrArGrCrGrCrCrArCrCrGrCrArGrCdAdC”, 80.5%. On the same count and under the same terms, under “sense rUrGrGrUrGrGrArCrCrUrCrArUrCrGrArArCrAdTdT / antisense rUrGrUrUrCrGrArUrGrArGrGrUrCrCrArCrCrAdGdG” stands 96.4%. Same read-out and setting: then “sense rArGrCrArArGrArArGrCrUrGrCrGrGrArGrGrAdTdT / antisense rUrCrCrUrCrCrGrCrArGrCrUrUrCrUrUrGrCrUdTdA”, with 97.7%; and “sense rGrUrGrCrArArGrCrCrGrUrCrCrArArGrUrCrCdTdT / antisense rGrGrArCrUrUrGrGrArCrGrGrCrUrUrGrCrArCdAdC”, with 75.4%; and “sense rGrArUrGrUrGrGrCrUrGrUrGrGrUrCrGrCrArGdTdT / antisense rCrUrGrCrGrArCrCrArCrArGrCrCrArCrArUrCdTdG”, with 81.7%.

As for “sense rCrUrGrArArCrGrArGrArCrGrCrUrGrCrUrGrCdTdT / antisense rGrCrArGrCrArGrCrGrUrCrUrCrGrUrUrCrArGdAdT”, the normalised inhibition (eCFP-eYFP dual reporter) came out at 46.9%.

Regarding “sense rUrGrUrGrGrUrCrGrCrArGrArCrArUrUrCrUrGdTdT / antisense rCrArGrArArUrGrUrCrUrGrCrGrArCrCrArCrAdGdC”, the normalised inhibition (eCFP-eYFP dual reporter) was found to be 57.5%.

“sense rGrGrGrCrArArGrArArGrCrArGrCrGrCrCrUrAdTdT / antisense rUrArGrGrCrGrCrUrGrCrUrUrCrUrUrGrCrCrCdTdG”: the normalised inhibition (eCFP-eYFP dual reporter) was 93.3%. Still for that read-out and setting: under “sense rCrCrArGrCrUrGrCrUrGrCrGrGrCrArGrCrGrGdTdT / antisense rCrCrGrCrUrGrCrCrGrCrArGrCrArGrCrUrGrGdTdC” stands 78.3%; under “sense rCrCrCrGrUrGrCrUrGrUrArCrGrCrGrUrGrGrAdTdT / antisense rUrCrCrArCrGrCrGrUrArCrArGrCrArCrGrGrGdGdC”, 60.3%; under “sense rGrCrCrGrGrCrGrGrCrCrArGrCrArCrUrArUrCdTdT / antisense rGrArUrArGrUrGrCrUrGrGrCrCrGrCrCrGrGrCdCdG”, 82.2%.

For the next data set, the target named is UFC1. The data set is described as follows: reporter assay of Huesken 2005. The conditions noted are these: siRNA. For orientation: Reporter assays use an easily measured gene product as a stand-in for the process of interest.
In the case of “sense rCrUrGrGrArGrUrCrCrArArCrArArGrGrArArGdTdT / antisense rCrUrUrCrCrUrUrGrUrUrGrGrArCrUrCrCrArGdTdC”, the normalised inhibition (eCFP-eYFP dual reporter) was determined as 66.3%. “sense rUrCrArUrCrCrArArCrArCrArArArGrArGrArAdTdT / antisense rUrUrCrUrCrUrUrUrGrUrGrUrUrGrGrArUrGrAdCdG”: the normalised inhibition (eCFP-eYFP dual reporter) was 93%. Still for that read-out and setting: under “sense rUrGrArCrArUrUrCrCrUrArUrCrArCrArUrArUdTdT / antisense rArUrArUrGrUrGrArUrArGrGrArArUrGrUrCrAdAdA” stands 115%; under “sense rArCrCrUrUrUrGrUrGrGrGrCrCrArGrGrArArUdTdT / antisense rArUrUrCrCrUrGrGrCrCrCrArCrArArArGrGrUdTdT”, 56.9%.
